Earlier results, collected in the CATMoS acute toxicity set (Mansouri et al. 2021).
“And” between values parts separate entries of the source, which are not always exact repeats. Identical values can stand only once.

Test: rat acute oral toxicity
Settings: in vivo
From the text: […]The data set underlying the modeling effort for this project was initially compiled by NICEATM and U.S. EPA’s CCTE. Briefly, LD50 data were collected from rat acute oral systemic toxicity tests, including limit tests, ranges/confidence intervals, and discrete LD50 values. The full data set included 21,200 LD50 entries for 15,688 substances. […] Data were reviewed to ensure that LD50 values with obvious errors in the extracted data such as unit conversion errors (e.g., comma and decimal separator misplacements) were either fixed or removed. After this review, 16,209 LD50 values remained. Many of the chemicals represented had multiple LD50 entries, requiring that a single representative value per Chemical Abstracts Service Registry Number (CASRN) identifier be defined to facilitate modeling efforts. Based on ATWG feedback and to define the representative LD50 as a protective value while accounting for the distribution across multiple LD50s, the median of the lowest quartile was computed using only discrete LD50 values (omitting limit test data and range and confidence interval data). A detailed summary of the data compilation is available online on the NICEATM webpage dedicated to the collaborative modeling project (NTP 2020).
[…][…] For categorical designations, limit test and range/confidence interval LD50 data were integrated wherever possible. As such, the number of chemicals with end point values/calls varies across the modeling end points (Table 3) based on whether chemicals had representative LD50 values and/or other data. If a chemical had both, the representative value was used to determine categorical calls rather than limit test data. Some data were useable only for certain end points and categories depending on the thresholds. For example, ranges that spanned multiple hazard categories were considered only for the binary (very toxic/nontoxic) end points and omitted from rendering a determination for hazard category assignment.
[…]The final data set comprising 11,992 chemicals was split into training and evaluation sets […], respectively. This process was performed semirandomly by ordering chemicals based on the five end points (categorical and continuous LD50 values) and partitioning every fourth record into the evaluation set accordingly. This approach was taken to ensure an equivalent distribution of the LD50 values and the different hazard categories between the training and the evaluation sets without supervised sampling of the chemicals based on structures (Figure 1A). The sources of the chemical structures were also kept equivalent between the two sets, with chemical structures obtained from DSSTox, being the highest quality, representing over 75% of each set (Figure 1B).

| Compound | LD50 |
| --- | --- |
| CCC(COCC1CO1)(COCC1CO1)COCC1CO1 (stereo unspecified) | 3400 mg/kg |
| CON=CC1=CCCNC1 | 12 mg/kg |
| CCn1cc(C(=O)O)c(=O)c2cc3c(cc21)OCO3 | 525 mg/kg |
| Cc1cc(C(=O)Nc2ccccc2)c(C)o1 | 64 mg/kg |
| O=C(O)CCCCCCl | 3080 mg/kg |
| Nc1nc2cc(Cl)c(O)cc2o1 | 1070 mg/kg |
| O=c1[nH]ncc2ccccc12 | 370 mg/kg |
| CC(=O)Nc1ccccc1 | 800 mg/kg |
| Cc1ccc(N=CN(C)SN(C)C=Nc2ccc(C)cc2C)c(C)c1 | 300 mg/kg |
| CC(NC(C)(C)C)C(=O)c1cccc(Cl)c1 (stereo unspecified) | 482 mg/kg and 600 mg/kg |
| N#CC(C#N)=C1SCS1 | 75 mg/kg |
| c1ccc(-c2ccc(C(c3ccccc3)n3ccnc3)cc2)cc1 (stereo unspecified) | 1460 mg/kg |
| CC(C)=CC(NC(=O)C1=C([O-])c2sc(Cl)cc2S(=O)(=O)N1C)[n+]1ccccc1 (stereo unspecified) | 10 mg/kg |
| COc1cccc(C=Nc2c(C)n(C)n(-c3ccccc3)c2=O)c1 | 5600 mg/kg |
| CCC(C)(N)C#N (stereo unspecified) | 74 mg/kg |
| Cc1cc(C(C)(C)C)c(OB(OC(C)C)OC(C)C)c(C(C)(C)C)c1 | 5200 mg/kg |
| O=C(OC1CCCCC1)C(Oc1ccc(Cl)cc1)Oc1ccc(Cl)cc1 | 900 mg/kg |
| O=C1C2=C(CCCC2)C(=O)N1c1ccc(Cl)cc1 | 24000 mg/kg |
| O=C(OCCOC(=O)c1ccccc1)c1ccccc1 | 5340 mg/kg |
| CC1(NC(N)=O)CCCC1 | 1200 mg/kg |
| OC(CNCCNCC(O)COc1ccccc1)COc1ccccc1 (stereo unspecified) | 2920 mg/kg |
| COc1ccc(C(=O)CCC(=O)O)c2ccoc12 | 1230 mg/kg |
| O=[N+]([O-])c1ccc(Oc2c(Cl)cc(Cl)cc2Cl)cc1 | 10800 mg/kg |
| CCN1C[C@H]2CN(C)C[C@@H](C1)C2OC(=O)c1ccc(Cl)cc1 (stereo partly specified) | 383 mg/kg |
| CCCCCCCCCc1cc(C)cc(Cc2cc(C)cc(CCCCCCCCC)c2O)c1O | 33000 mg/kg |

| Compound | LD50 |
| --- | --- |
| COP(=S)(OC)Oc1cc(C)c(Cl)cc1C(C)C | 500 mg/kg |
| CCCOCCN(C(=O)CCl)c1c(CC)cccc1CC | 2200 mg/kg |
| O=C(O)CSc1cccc2cccc(CCl)c12 | 2500 mg/kg |
| CC(O)Cn1cnc2c1c(=O)n(C)c(=O)n2C (stereo unspecified) | 460 mg/kg |
| Cc1ccccc1-c1nnc(NN)s1 | 120 mg/kg |
| ClCNc1cc(Cl)ccc1Oc1ccc(Cl)cc1 | 726 mg/kg |
| O=P(O)(O)Oc1c(Br)cc(Br)cc1-c1cc(Br)cc(Br)c1O | 142 mg/kg |
| CSc1ccc(O)cc1C | 3400 mg/kg |
| COc1ccc2c(c1)-c1c(ccc(OC)c1O)CC(CCc1ccccc1)N(C)CC2 (stereo unspecified) | 500 mg/kg |
| Cc1cccc(I)c1 | 2300 mg/kg |
| CCOP(=S)(OCC)Oc1ccc(N=C=S)cc1 | 251 mg/kg |
| O=C(Cn1ccnc1)c1ccc2ccccc2c1 | 504 mg/kg |
| O=C(Nc1cccc(Cl)c1)OCC#CCCl | 527 mg/kg |
| N#Cc1ccc(Cl)c([N+](=O)[O-])c1 | 2050 mg/kg |
| COc1ccc(C=O)cc1 | 1510 mg/kg |
| CCCCc1c(OC(=O)c2cccs2)n(-c2ccccc2)n(-c2ccccc2)c1=O | 1180 mg/kg |
| Nc1ccc(O)c2c1C(=O)c1c(N)c(Br)cc(O)c1C2=O | 12500 mg/kg |
| C#CCCl | 165 mg/kg |
| Cc1c(Cl)c(Br)c(Br)c2[nH]c(C(F)(F)F)nc12 | 23 mg/kg |
| CCC(O)(c1ccccc1)c1cccc(C(F)(F)F)c1 (stereo unspecified) | 2240 mg/kg |
| O=S(=O)(c1ccccc1)c1ccc(Cl)cc1 | 1400 mg/kg |
| CC(C)CCC(C)Nc1ccc(NC(C)CCC(C)C)cc1 (stereo unspecified) | 750 mg/kg |
| C=CCc1ccc(OC(C)=O)c(OC)c1 | 1670 mg/kg |
| O=C(O)C(F)(F)C(F)(F)C(F)(F)C(F)F | 1760 mg/kg |
| CC(c1ccc(Cl)cc1)c1ccc(Cl)cc1 | 1000 mg/kg |

| Compound | LD50 |
| --- | --- |
| O=C(CF)Nc1ccc(Br)cc1 | 29 mg/kg |
| O=[N+]([O-])c1cc(Cl)cc2[nH]c(C(F)(F)F)nc12 | 2.78 mg/kg |
| CN1CCCCC1C(c1ccccc1)c1cccc(O)c1 (stereo unspecified) | 1 mg/kg |
| CC1NC(=O)c2cc(N)ccc2O1 (stereo unspecified) | 1420 mg/kg |
| CCOC(=O)C1=C(C)NC(C)=C(C(=O)OCC)C1c1ccccc1/C=C/C(=O)OC(C)(C)C | 880 mg/kg |
| CC(C)/N=C(\N)NC(C)C | 2880 mg/kg |
| C=S | 365 mg/kg |
| CC1=NN(c2ccccc2)C(=O)C1C=O (stereo unspecified) | 716 mg/kg |
| CCCCCCCCc1ccc(-c2ccccc2)cc1 | 2400 mg/kg |
| Nc1ccc(S(=O)(=O)Nc2ccc(NC(=O)CCC(=O)O)cc2)cc1 | 1500 mg/kg |
| O=C(CCl)c1ccc(O)cc1 | 230 mg/kg |
| C[C@@H](NCCc1ccc(O)cc1)[C@@H](O)c1ccc(O)cc1 (racemic) | 1840 mg/kg |
| C=C(CO)C(=O)OCC | 620 mg/kg |
| CSc1nc(-c2ccc(Cl)cc2)n(-c2ccc(Cl)cc2)n1 | 770 mg/kg |
| CC1(C)[C@@H]2CC[C@@]1(C)[C@H](OC(=O)CSC#N)C2 | 1000 mg/kg |
| CCOP(=O)(OCC)OC(=C(Cl)Cl)c1ccc(Cl)cc1Cl | 30.2 mg/kg |
| Nc1ncnc2c1ncn2[C@]1(CO)O[C@H](CO)[C@@H](O)[C@H]1O | 10000 mg/kg |
| CC(C(=O)O)c1ccc(-n2cc3ccccc3n2)cc1 (stereo unspecified) | 1550 mg/kg |
| NC(=O)C1CCN(CCCN2c3ccccc3Sc3ccc(Cl)cc32)CC1 | 620 mg/kg |
| CCCCCN(CCCCC)N=O | 1750 mg/kg |
| CCOC(=O)/C=C/C(=O)OCC | 1780 mg/kg |
| CC=CC=CC(=O)NO | 2460 mg/kg |
| O=NN(CCCl)C(=O)NCCS(=O)(=O)NCc1ccccc1 | 250 mg/kg |
| CNCCC=C1c2ccccc2CCc2ccccc21 | 502 mg/kg and 405 mg/kg |
| Cc1cc(C(C)(C)C)c(O)c(C)c1CC1=NCCN1 | 0.8 mg/kg and 0.68 mg/kg |

| Compound | LD50 |
| --- | --- |
| O=C(CS)OCCOC(=O)CS | 330 mg/kg |
| O=[N+]([O-])C1(Br)COCOC1 | 455 mg/kg |
| COc1ccc2cc(C(C)C(=O)OCCO)ccc2c1 (stereo unspecified) | 1720 mg/kg |
| Oc1ccc(C(O)CNCCCCCCNCC(O)c2ccc(O)c(O)c2)cc1O (stereo unspecified) | 10000 mg/kg |
| CCOC(=O)C1=CN(C(C)=O)C2CCCC(C)N2C1=O (stereo unspecified) | 2500 mg/kg |
| FC(F)(F)c1nc2cc(Cl)c(Cl)cc2[nH]1 | 7.88 mg/kg |
| CC1=CC[C@@H]2C[C@@H](C[C@]3(CC[C@H](C)[C@@H](C)O3)O2)OC(=O)[C@@H]2C=C(C)[C@@H](O)[C@H]3OCC(=CC=C[C@H](C)C1)[C@]32O | 456 mg/kg |
| Cc1cccc(C(C)C)c1 | 2970 mg/kg |
| COc1ccc2c(c1)CCC(N(CCCCOC(=O)c1ccc(OC)c(OC)c1)C(C)C)C2 (stereo unspecified) | 1540 mg/kg |
| CCOP(=S)(OCC)Oc1ccc2c(C)cc(=O)oc2c1 | 14.7 mg/kg |
| O=C(OCC1CO1)c1ccccc1C(=O)OCC1CO1 (stereo unspecified) | 1240 mg/kg |
| CCC(=O)c1ccc(OCC(O)CO)c(OC)c1 (stereo unspecified) | 1640 mg/kg |
| COc1cccc2c1cc([N+](=O)[O-])c1c(C(=O)O)cc3c(c12)OCO3 | 184 mg/kg |
| O=[N+]([O-])C(CO)(CO)CO | 1900 mg/kg |
| CCOC(=O)C=CC(=O)OCC | 3200 mg/kg |
| CCCn1cnc2c1c(=O)n(CCCCC(C)=O)c(=O)n2C | 940 mg/kg |
| C#CC(=O)C=CC | 71 mg/kg |
| CNC(=O)Oc1cccc2c1OC(C)(C)C2O (stereo unspecified) | 18 mg/kg |
| CC(C)CCO | 1300 mg/kg |
| CCCOP(=S)(OCCC)SCC(=O)N1CCCCC1C (stereo unspecified) | 324 mg/kg |
| CC(=O)CC(=O)Nc1ccc(C)cc1C | 3000 mg/kg |
| CCCCc1ccc(C(=O)O)nc1 | 480 mg/kg |
| COP(=S)(OC)Oc1ccc2c(C)cc(=O)oc2c1 | 15.6 mg/kg |
| CCCCOC(=O)C1CCC(C(=O)OCCCC)C1 (stereo unspecified) | 6500 mg/kg |
| Fc1c(Cl)ccc2[nH]c(C(F)(F)F)nc12 | 5.72 mg/kg |

| Compound | LD50 |
| --- | --- |
| CNC(=O)ON=C1[C@@H](Cl)[C@@H]2C[C@H](C#N)[C@H]1C2 (relative stereo) | 25 mg/kg |
| CS(=O)(=O)c1ccc(Cl)cc1 | 400 mg/kg |
| CCOC(C1=NCCCN1)c1cccc(F)c1 (stereo unspecified) | 1000 mg/kg |
| CN1CCC(CN2c3ccccc3Sc3ccccc32)C1 (stereo unspecified) | 260 mg/kg and 162 mg/kg |
| COc1cc2nc(N3CCC(N(C)C(=O)c4ccccc4)CC3)nc(N)c2cc1OC | 1000 mg/kg |
| ClCc1ccccn1 | 316 mg/kg |
| Cc1c(-c2c(C)c(N)c3c(C(C)C)c(O)c(O)c(C=O)c3c2O)c(O)c2c(C=O)c(O)c(O)c(C(C)C)c2c1N | 3270 mg/kg |
| CCOC(=O)C1CC(=O)C(=C(O)C2CC2)C(=O)C1 (stereo unspecified) | 4460 mg/kg |
| C[Si](Cn1cncn1)(c1ccc(F)cc1)c1ccc(F)cc1 | 674 mg/kg |
| Cc1c([N+](=O)[O-])cc(N)cc1[N+](=O)[O-] | 959 mg/kg |
| COc1nc(C(F)(F)F)nc(=NC(O)=NS(=O)(=O)c2ccccc2C(F)(F)F)[nH]1 | 4700 mg/kg |
| CCOP(=S)(SC(C)CC)N(C=O)CC (stereo unspecified) | 95.9 mg/kg |
| O=C(c1cc2ccccc2o1)N1CCN(Cc2ccccc2)CC1 | 2530 mg/kg |
| COc1ccc(C(=O)CCC(=O)O)c2cc(C)oc12 | 2160 mg/kg |
| CC(O)(c1ccc(Cl)cc1)c1ccc(Cl)cc1 | 500 mg/kg |
| CCN1CCC(=C2c3ccccc3CCc3ccccc32)C1C (stereo unspecified) | 600 mg/kg |
| Cc1ccc(C(=O)c2ccccc2)c(C(=O)O)c1 | 5600 mg/kg |
| C=C(C)C(=O)OC[Si]12OCCN(CCO1)CCO2 | 7950 mg/kg |
| CCOC(=O)Nc1ccc(NCc2ccc(F)cc2)nc1N | 1660 mg/kg |
| C=CC(=O)OCCSCC | 2500 mg/kg |
| COc1cc2c(cc1OC)C(c1ccc(N)cc1)=NN=C(C)C2 | 128 mg/kg |
